From patent US20070129367A1, “Pyridine derivatives as cb2 receptor modulators” (priority 2002, published 2007)
Like-named read-outs stand apart in the source and are kept apart here.

Molecular target: T1, human cannabinoid CB2 receptor (Homo sapiens, UniProt P34972)
T1 construct: expressed in transfected cells; host or cells: Saccharomyces cerevisiae strain MMY23 (cassette integrated at the ura3 locus, GPD promoter)
Assay: Cannabinoid CB2 receptor agonist activity in yeast (Saccharomyces cerevisiae) cells expressing the receptor, FDGlu fluorescence readout;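 for Emax: percent of the maximal response of the reference agonist HU210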
Assay type: cell-based
Conditions: for Emax: read-out: efficacy (Emax) at the cloned human cannabinoid CB2 receptor
Description: Determination of Cannabinoid CB2 Receptor Agonist Activity
The cannabinoid CB2 receptor agonist activity of the compounds of formula (I) was determined in accordance with the following experimental method.
Yeast (Saccharomyces cerevisiae) cells expressing the human cannabinoid CB2 receptor were generated by integration of an expression cassette into the ura3 chromosomal locus of yeast strain MMY23. This cassette consisted of DNA sequence encoding the human CB2 receptor flanked by the yeast GPD promoter to the 5′ end of CB2 and a yeast transcriptional terminator sequence to the 3′ end of CB2. MMY23 expresses a yeast/mammalian chimeric G-protein alpha subunit in which the C-terminal 5 amino acids of Gpa1 are replaced with the C-terminal 5 amino acids of human Gαi3 (as described in Brown et aL (2000), Yeast 16:11-22). Cells were grown at 30° C. in liquid Synthetic Complete (SC) yeast media (Guthrie and Fink (1991), Methods in Enzymology, Vol. 194) lacking uracil, tryptophan, adenine and leucine to late logarithmic phase (approximately 6 OD600/ml).
Agonists were prepared as 10 mM stocks in DMSO. […] Agonist solutions in DMSO (1% final assay volume) were transferred into black, clear bottom, microtitre plates from NUNC (96- or 384-well). […] This mixture (50 ul per well for 384-well plates, 200 ul per well for 96-well plates) was added to agonist in the assay plates (Multidrop 384, Labsystems). After incubation at 30° C. for 24 hours, fluorescence resulting from degradation of FDGlu to fluorescein due to exoglucanase, an endogenous yeast enzyme produced during agonist-stimulated cell growth, was determined using a Spectrofluor microtitre plate reader (Tecan; excitation wavelength: 485 nm; emission wavelength: 535 nm). Fluorescence was plotted against compound concentration and iteratively curve fitted using a four parameter fit to generate a concentration effect value. […] Equieffective molar ratio (EMR) values were calculated from the equation EMR=EC50 [compound X]/EC50 [HU210]
Where EC50 [compound X] is the EC50 of compound X and EC50 [HU210] is the EC50 of HU210.

[1] = agonist activity, yeast cells, 24 hours at 30° C., read-out: EC50 at the cloned human cannabinoid CB2 receptor

T1 sequence (P34972 whole entry): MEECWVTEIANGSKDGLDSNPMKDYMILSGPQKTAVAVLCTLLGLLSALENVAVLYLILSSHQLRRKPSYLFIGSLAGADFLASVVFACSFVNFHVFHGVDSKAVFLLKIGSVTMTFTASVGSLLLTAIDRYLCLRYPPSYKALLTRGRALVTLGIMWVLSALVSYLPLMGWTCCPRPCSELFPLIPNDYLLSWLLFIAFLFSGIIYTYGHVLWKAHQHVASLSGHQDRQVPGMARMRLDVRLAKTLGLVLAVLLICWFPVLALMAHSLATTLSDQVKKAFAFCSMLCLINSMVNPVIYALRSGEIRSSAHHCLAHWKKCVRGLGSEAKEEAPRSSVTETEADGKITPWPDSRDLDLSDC

Compound	EC50	Emax	EC50 [1]
O=C(NCc1ccc(F)cc1)c1cnc(Nc2ccc(Cl)cc2Cl)cc1C(F)(F)F [Example 52]	< 300 nM	> 50%	
CC(C)c1cc(Nc2ccc(C(F)(F)F)c(F)c2)ncc1C(=O)NCc1ccc(F)cc1 [Example 76, N-(4-fluoro-benzyl)-6-(3-Fluoro-4-trifluormethyl-phenylamino)-4-isopropyl-nicotinamide]			300 to 1000 nM
CC(C)c1cc(Nc2cccc(OC(F)(F)F)c2)ncc1C(=O)NCc1ccc(F)cc1 [Example 25, N-(4-Fluoro-benzyl)-4-isopropyl-6-(3-trifluoromethoxy-phenylamino)-nicotinamide]	300 to 1000 nM	> 50%	
O=C(NCc1ccc(F)cc1)c1cnc(Nc2cccc(Cl)c2)cc1C(F)(F)F [Example 44, N-(4-Fluoro-benzyl)-6-(3-chloro-phenylamino)-4-trifluoromethyl-nicotinamide]	< 300 nM	> 50%	
Cc1cc(Cl)ccc1Nc1cc(C(F)(F)F)c(C(=O)NCc2ccncc2)cn1 [Example 58, N-(Pyridin-4-ylmethyl)-6-(2-methyl-4-chloro-phenylamino)-4-trifluoromethyl-nicotinamide]	< 300 nM	> 50%	
CC(C)c1cc(Nc2cccc(Cl)c2)ncc1C(=O)NCc1ccc(F)cc1 [Example 3, 6-(3-Chlorophenylamino)-N-(4-fluorobenzyl)-4-isopropyl-nicotinamide]		> 50%	
CC(C)c1cc(Nc2ccc(Br)cc2Cl)ncc1C(=O)NCc1ccc(F)cc1 [Example 21, 6-(4-Bromo-2-chloro-phenylamino)-N-(4-fluoro-benzyl)-4-isopropyl-nicotinamide]	< 300 nM	> 50%	
COc1cccc(Nc2cc(C(C)C)c(C(=O)NCc3ccc(F)cc3)cn2)c1 [Example 30]	300 to 1000 nM	> 50%	
CC(C)c1cc(Nc2ccc(Cl)cc2Br)ncc1C(=O)NCc1ccc(F)cc1 [Example 70, 6-(2-Bromo-4-chloro-phenylamino)-N-(4-fluoro-benzyl)-4-isopropyl-nicotinamide]	< 300 nM	> 50%	
CC(C)c1cc(Nc2ccc(Cl)c(Cl)c2)ncc1C(=O)NCc1ccc(F)cc1 [Example 32, 6-(3,4-Dichloro-phenylamino)-N-(4-fluoro-benzyl)-4-isopropyl-nicotinamide]	300 to 1000 nM	> 50%	
O=C(NCc1ccc(F)cc1)c1cnc(Nc2cc(Cl)cc(Cl)c2)cc1C(F)(F)F [Example 53]	< 300 nM	> 50%	
CC(C)c1cc(Nc2ccc(Br)c(F)c2)ncc1C(=O)NCc1ccc(F)cc1 [Example 24, 6-(4-Bromo-3-fluoro-fluoro-benzyl)-4-phenylamino)-N-(4-isopropyl-nicotinamide]			< 300 nM
CC(C)c1cc(Nc2ccc(F)c(Cl)c2)ncc1C(=O)NCc1ccc(F)cc1 [Example 15, 6-(3-Chloro-4-fluoro-phenylamino)-N-(4-fluoro-benzyl)-4-isopropyl-nicotinamide]			< 300 nM
